Here are results for twelve compounds from ChEMBL document CHEMBL3414465, “Discovery of novel P1 groups for coagulation factor VIIa inhibition using fragment-based screening” (J Med Chem, 2015).

The target of data set [1] is Coagulation factor VII/tissue factor (Homo sapiens, UniProt P08709). Description: Inhibition of human soluble tissue factor/factor VIIa expressed in Origami B (DE3) using D-Ile-Pro-Arg-pNA as substrate after 30 mins by spectrophotometric analysis.
A short description of data set [2]: Permeability of the compound after 4 hrs by PAMPA. It is filed as ADME. The note with it: read-out: permeability.
The test system of the next data set is Plasma. Description: Anticoagulant activity in factor VII-deficient human plasma assessed as concentration required to prolong clotting time by two-fold. It is filed as functional.

By Ki is commonly meant the dissociation constant of the complex between target and ligand, obtained from inhibition or displacement. A low value points to tighter binding.

Sequence of Coagulation factor VII/tissue factor (P08709 61-212 limits assumed): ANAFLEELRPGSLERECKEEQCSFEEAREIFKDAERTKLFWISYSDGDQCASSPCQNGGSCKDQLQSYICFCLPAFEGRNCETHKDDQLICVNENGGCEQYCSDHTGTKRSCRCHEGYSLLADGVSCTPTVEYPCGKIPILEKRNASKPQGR
Sequence of Coagulation factor VII/tissue factor (P08709 213-466 limits assumed): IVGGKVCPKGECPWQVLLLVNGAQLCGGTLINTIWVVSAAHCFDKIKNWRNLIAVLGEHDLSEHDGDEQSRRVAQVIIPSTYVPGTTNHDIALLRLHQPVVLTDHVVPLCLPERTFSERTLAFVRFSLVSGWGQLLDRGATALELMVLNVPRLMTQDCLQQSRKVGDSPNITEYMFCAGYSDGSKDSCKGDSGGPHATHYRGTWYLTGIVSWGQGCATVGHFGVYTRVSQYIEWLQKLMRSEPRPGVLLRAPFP
Sequence of Coagulation factor VII/tissue factor (P13726 33-295 partner limits assumed): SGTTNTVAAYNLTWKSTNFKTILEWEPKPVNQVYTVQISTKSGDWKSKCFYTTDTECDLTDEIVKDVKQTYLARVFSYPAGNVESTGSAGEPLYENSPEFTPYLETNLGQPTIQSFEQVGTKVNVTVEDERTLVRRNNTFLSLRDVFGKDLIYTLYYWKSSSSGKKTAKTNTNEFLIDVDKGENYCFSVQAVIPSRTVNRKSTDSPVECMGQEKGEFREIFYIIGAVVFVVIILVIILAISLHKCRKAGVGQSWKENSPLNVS

In data set [1], `Clc1ccc2[nH]nnc2c1` had a Ki of 8.7 mM. On the same count and under the same terms, under `CC(O)c1cccc2ccccc12` (centres undefined) stands 16 mM. The same measure, in the same setting: under `COc1cc(Br)ccc1O` stands 13 mM; under `COC(=O)c1cccc2[nH]ccc12`, 13 mM; under `COc1cc(Cl)ccc1O`, 16 mM. The same measure, in the same setting: under `O=C(O)c1c[nH]c2ccc(Cl)cc12` stands 5.7 mM. As to `COC(=O)Nc1ccc(S(=O)(=O)C(C)C)c([C@H]2CCCN2C(=O)[C@H](Nc2ccc3c(c2)C(=O)NCC3)c2cc(OC)c(OC)cc2F)c1`, the Papp at 4 h in data set [2] amounted to 1.8 ×10⁻⁶ cm/s. Besides, in the data set on Plasma, the 2PT amounted to 160 µM. The compound further returned a Ki in data set [1] of 0.00013 mM. In data set [1], `Clc1ccc2[nH]ccc2c1` gave a Ki of 4.3 mM. The same measure, in the same setting: the result for `O=C(O)c1cc2cc(Cl)ccc2[nH]1` [5-CHLOROINDOLE-2-CARBOXYLIC ACID] reads 3.5 mM; that for `N=C(N)c1ccccc1` [BENZAMIDINE], 0.24 mM; that for `OCc1ccc(Cl)cc1Cl` [DICHLOROBENZYL ALCOHOL], 13 mM. The same measure, in the same setting: under `NC(=O)c1cccnc1` [NIACINAMIDE] stands 8 mM.
